Earlier results as cited in patent US20050137262A1, “Highly concentrated pourable aqueous solutions of potassium ibuprofen, their preparation and their uses” (priority 2003, published 2005).

For CC(C)Cc1ccc(C(C)C(=O)[O-])cc1.[K+] (centres unmarked) [potassium ibuprofen, potassium 2-(4-isobutylphenyl)propionate], the “concentration of dissolved potassium ibuprofen” value (U.S. Pat No. 5,912,011 Table 1, system with 35.2 wt % ibuprofen, 33.3 wt % PEG 600, 7.3 wt % water) is listed as 24.2 wt % and the “maximum concentration of dissolved potassium ibuprofen shown” value (U.S. Pat. No. 6,387,400, polyethylene glycol solvent, less than about 50 mole % of ibuprofen converted to potassium salt) is listed as “about 24.2 wt %”.
